Results published in publication PMC3337729 (Anesthesiology, 2011).

What was measured:
[1] = target: T1, Complex I (NADH-ubiquinone oxidoreductase) (Rattus norvegicus, UniProt A6K8N6+P03889+Q5XIH3+Q641Y2); experiment: rotenone-sensitive NADH oxidation, absorbance at […] nm; format: biochemical; details: 0.2 mM NADH, antimycin A present
[2] = target: T1, Complex I (NADH-ubiquinone oxidoreductase); experiment: as above; format: biochemical; details: read-out: % of control activity at 0.5 mM

NC(=O)C1=CN([C@@H]2O[C@H](COP(=O)(O)OP(=O)(O)OC[C@H]3O[C@@H](n4cnc5c(N)ncnc54)[C@H](O)[C@@H]3O)[C@@H](O)[C@H]2O)C=CC1 [NADH]
rotenone-sensitive NADH oxidation, absorbance at 340 nm ([1]; decylubiquinone acceptor): Complex I activity was determined by the rotenone-sensitive reduction of NADH absorbance using decylubiquinone

CCCCCCCCCCC1=C(C)C(=O)C(OC)=C(OC)C1=O [decylubiquinone]
rotenone-sensitive NADH oxidation, absorbance at 340 nm ([1]; decylubiquinone printed as 75 mM): rotenone-sensitive reduction of NADH absorbance using decylubiquinone as acceptor

FC(F)OC(Cl)C(F)(F)F (stereo not drawn) [isoflurane]
remaining activity at 500 µM [2]: 86 ± 5%
